These results are taken from PubChem BioAssay AID488998 (The Scripps Research Institute Molecular Screening Center, 2010).

Structures are written as SMILES. Calls of active or inactive are those of the source.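 How the source made its calls: active means IC50 at or below 10 µM; inactive means IC50 above 10 µM.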 Bounds are passed on as bounds.

The target in this experiment is Lytic switch protein BZLF1 (Epstein-Barr virus (strain B95-8)) (UniProt P03206). The experiment in a line: Zta-DNA binding inhibition potency, late-stage follow-up, counter-screen for EBNA-1 inhibitor project, biochemical, fluorescence polarization, dose response, round 0 (AID 488998). To be noted: purified Zta–Cy5 ZRE DNA binding.
Chain of Lytic switch protein BZLF1 (Epstein-Barr virus (strain B95-8)) (P03206 whole entry, looked up): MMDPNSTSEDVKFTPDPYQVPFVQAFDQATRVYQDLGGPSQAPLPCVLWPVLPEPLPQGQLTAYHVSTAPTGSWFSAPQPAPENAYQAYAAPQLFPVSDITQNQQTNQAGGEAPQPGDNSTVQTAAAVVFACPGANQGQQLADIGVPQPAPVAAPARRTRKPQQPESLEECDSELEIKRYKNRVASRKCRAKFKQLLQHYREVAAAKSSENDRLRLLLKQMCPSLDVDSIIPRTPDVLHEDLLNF
Broadly, the IC50 is the concentration that inhibits the measured activity by half. Consider `Cc1cc(C(=O)CSc2nnnn2-c2ccccc2)c(C)n1Cc1cccs1`, for which the IC50 is > 111 µM (inactive).

For `COCCn1c(C)cc(C(=O)CSc2nnnn2-c2ccccc2)c1C`, the IC50 was > 111 µM (inactive).

Regarding `Cc1cccc(C(=O)Nc2nc3ccc(S(C)(=O)=O)cc3s2)c1`, the IC50 is > 111 µM (inactive).

With `COc1ccc(-n2nnnc2SCC(=O)c2cc(C)n(CC3CCCO3)c2C)cc1` (stereo not given), the IC50 was > 111 µM (inactive).

Consider `Cc1cc(C(=O)CSc2nnnn2C2CC2)c(C)n1CC1CCCO1` (stereo not given), for which the IC50 is > 111 µM (inactive).

Regarding `CCn1c(C)cc(C(=O)CSc2nnnn2-c2ccccc2)c1C`, the IC50 is > 111 µM (inactive).

On to `Cc1cc(C(=O)CSc2nnnn2-c2ccccc2)c(C)n1C`, for which the IC50 was > 111 µM (inactive).

On to `COc1ccc2sc(NC(=O)c3ccc(C)c(C)c3)nc2c1`, for which the IC50 was > 111 µM (inactive).

Regarding `Cc1ccc(C(=O)Nc2nc3ccc(S(C)(=O)=O)cc3s2)cc1`, the IC50 is > 111 µM (inactive).

For `CS(=O)(=O)c1ccc2nc(NC(=O)c3cccc(Cl)c3)sc2c1`, the IC50 was > 111 µM (inactive).

Turning to `Cc1ccc(C(=O)Nc2nc3ccc(Br)cc3s2)cc1C`, the IC50 is > 111 µM (inactive).

For the molecule `O=C(CSc1nnnn1-c1ccccc1)c1ccn(CC2CCCO2)c1` (stereo not given), the IC50 is > 111 µM (inactive).

In the case of `Cc1cc(C(=O)CSc2nnnn2-c2cccc(F)c2)c(C)n1CC1CCCO1` (stereo not given), the IC50 was > 111 µM (inactive).

With `COc1ccc(C(=O)Nc2nc3ccc(S(C)(=O)=O)cc3s2)cc1`, the IC50 is > 111 µM (inactive).

For the molecule `CS(=O)(=O)c1ccc2nc(NC(=O)c3ccc(Cl)cc3)sc2c1`, the IC50 is > 111 µM (inactive).

With `CS(=O)(=O)c1ccc2nc(NC(=O)c3cccc(F)c3)sc2c1`, the IC50 was > 111 µM (inactive).

Regarding `Cc1cc(C(=O)CSc2nnnn2C)c(C)n1CC1CCCO1` (stereo not given), the IC50 is > 111 µM (inactive).

Regarding `Cc1cc(C(=O)CSc2nnnn2-c2ccc(Cl)cc2)c(C)n1CC1CCCO1` (stereo not given), the IC50 was > 111 µM (inactive).

In the case of `CS(=O)(=O)c1ccc2nc(NC(=O)c3ccccc3Cl)sc2c1`, the IC50 is > 111 µM (inactive).

On to `Cc1ccc(C(=O)Nc2nc3cc(F)ccc3s2)cc1C`, for which the IC50 was > 111 µM (inactive).

`Cc1ccccc1C(=O)Nc1nc2ccc(S(C)(=O)=O)cc2s1`: the IC50 is > 111 µM (inactive).

With `Cc1cccc(-n2nnnc2SCC(=O)c2cc(C)n(CC3CCCO3)c2C)c1` (stereo not given), the IC50 was > 111 µM (inactive).

Take `Cc1ccc(C(=O)Nc2nc3cc(Br)ccc3s2)cc1C`: the IC50 was > 111 µM (inactive).

`Cc1ccc(-n2nnnc2SCC(=O)c2cc(C)n(CC3CCCO3)c2C)cc1` (stereo not given): the IC50 was > 111 µM (inactive).

As to `COc1ccccc1C(=O)Nc1nc2ccc(S(C)(=O)=O)cc2s1`, the IC50 is > 111 µM (inactive).

On to `COc1ccc2nc(NC(=O)c3ccc(C)c(C)c3)sc2c1`, for which the IC50 is > 111 µM (inactive).

Regarding `Cc1ccccc1-n1nnnc1SCC(=O)c1cc(C)n(CC2CCCO2)c1C` (stereo not given), the IC50 was > 111 µM (inactive).

On to `CS(=O)(=O)c1ccc2nc(NC(=O)c3ccccc3F)sc2c1`, for which the IC50 was > 111 µM (inactive).

With `COc1cccc(C(=O)Nc2nc3ccc(S(C)(=O)=O)cc3s2)c1`, the IC50 was > 111 µM (inactive).

With `COc1cccc2sc(NC(=O)c3ccc(C)c(C)c3)nc12`, the IC50 is > 111 µM (inactive).
